15 compounds from patent US20250197420A1, “MACROCYCLIC COMPOUNDS, COMPOSITIONS, AND METHODS OF USING THEREOF” (Sionna Therapeutics Inc., priority 2022, published 2025) can be followed below.

For series [1] the following is noted: from (5-(3-(3-(2-(3-Bromophenyl)pent-4-en-2-yl)-1-methyl-1H-1,2,4-triazol-5-yl)-4-fluorophenoxy)-6-fluoro-1 -(phenylsulfonyl)-NH-indol-4-yl)methyl methyl(2-methylpent-4-en-2-yl)carbamate; rcm bond; 19-membered ring; Grubbs II (0.4 eq); toluene; 5.1 mM; 60.0 °C.
Series [2] relates to Primary human bronchial epithelial cells from a ΔF508 homozygous CF donor (CF-HBE cells). Put plainly: TECC24 recording of CFTR-mediated transepithelial chloride transport, AUC fold over benchmark VX-809 @10 μM. As to conditions: 48 hours incubation, AUC of forskolin-stimulated IEQ. It is filed as cell-based. A digest of the protocol:
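CF-HBE cells on inserts were treated with compound for 48 h at 36.5 °C, then recorded in current-clamp with benzamil 10 μM, forskolin 10 μM, and finally CFTR inhibitor-172 20 μM in pH 7.4 Hepes saline. Equivalent Cl− current AUC between forskolin and inhibitor addition is expressed as a ratio to VX-809 AUC: A <3, B 3–6, C 6–20.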

The target in series [3] is T1, Purified recombinant NBD1 (Homo sapiens, UniProt P13569).
T1 construct: Purified recombinant NBD1 was produced using previously described methods; made in house
Put plainly: Aggregation analysis using differential static light scattering (DSLS): thermal stability of NBD1. It is filed as binding. Particulars: NBD1 0.2 mg/ml; Tagg of compound well minus average Tagg of DMSO control wells. A digest of the protocol:
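Recombinant NBD1 at 0.2 mg/ml in Tris/NaCl/MgCl2 buffer with 2 mM ATP, 2 mM DTT, 1% glycerol, pH 7.6, was incubated with compound and heated at 1 °C/min to 70 °C while static light scattering was monitored. Tagg was taken from the curve inflection point and reported as ΔTagg relative to DMSO controls.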

T1 sequence (P13569 423-646 limits assumed): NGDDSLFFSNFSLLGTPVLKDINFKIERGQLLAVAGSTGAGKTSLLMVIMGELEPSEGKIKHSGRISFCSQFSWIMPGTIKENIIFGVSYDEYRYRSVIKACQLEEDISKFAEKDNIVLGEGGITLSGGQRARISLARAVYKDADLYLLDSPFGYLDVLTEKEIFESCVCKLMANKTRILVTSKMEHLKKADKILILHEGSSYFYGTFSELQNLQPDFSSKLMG

`CN1C(=O)OCc2c(c(F)cc3c2ccn3S(=O)(=O)c2ccccc2)Oc2ccc(F)c(c2)-c2nc(nn2C)C(C)(c2cccc(Br)c2)C/C=C\CC1(C)C` (centres unmarked) gave a ring closure, isolated yield in series [1] of 60%. In the case of `CC1(C)CCCC(C)(c2cccc(CCC(=O)O)c2)c2cnc([nH]2)-c2cc(ccc2F)Oc2c(F)cc3[nH]ccc3c2CCC(=O)NC1` (single isomer, unassigned) [Compound 40B, 3-[3-(23,29-difluoro-6,10,10-trimethyl-13-oxo-25-oxa-3,12,20,31-tetrazapentacyclo-[24.3.1.12,5.016,24.017,21]hentriaconta-1(30),2,4,16,18,21,23,26,28-nonaen-6-yl)phenyl]propanoic acid], in series [2], the “TECC (test agent AUC divided by VX-809 AUC)” value was “B (a value between 3 and 6 is marked “B”)”. The “DSLS (ΔTagg)” value in series [3] was “C (a value greater than 10 °C and less than or equal to 25 °C is marked “C”)”. In the case of `O=C(O)CCc1cccc(C2CCCCCCNC(=O)CCc3c(c(F)cc4[nH]ccc34)Oc3ccc(F)c(c3)-c3ncc2[nH]3)c1` (centres unmarked) [Compound 4, 3-[3-(24,30-Difluoro-14-oxo-26-oxa-3,13,21,32-tetrazapentacyclo-[25.3.1.12,5.017,25.018,22]dotriaconta-1(31),2,4,17,19,22,24,27,29-nonaen-6-yl)phenyl]propanoic acid], the “TECC (test agent AUC divided by VX-809 AUC)” value in series [2] is “B (a value between 3 and 6 is marked “B”)”. In series [3], the “DSLS (ΔTagg)” value was “C (a value greater than 10 °C and less than or equal to 25 °C is marked “C”)”. On to `CC1(c2cccc(CCC(=O)O)c2)CC(=O)NCCCCCc2c(c(F)cc3[nH]ccc23)Oc2ccc(F)c(c2)-c2ncc1[nH]2` (centres unmarked) [Compound 26, 3-[3-(22,28-Difluoro-6-methyl-8-oxo-24-oxa-3,9,19,30-tetrazapentacyclo[23.3.1.12,5.015,23.016,20]triaconta-1(29),2,4,15,17,20,22,25,27-nonaen-6-yl)phenyl]propanoic acid], for which, in series [2], the “TECC (test agent AUC divided by VX-809 AUC)” value is “B (a value between 3 and 6 is marked “B”)”. Moreover, the “DSLS (ΔTagg)” value in series [3] is “C (a value greater than 10 °C and less than or equal to 25 °C is marked “C”)”. On to `CC1(C)CCCC(C)(c2cccc(CCC(=O)O)c2)c2nnc([nH]2)-c2cc(ccc2F)Oc2c(F)cc3[nH]ccc3c2COC(=O)NC1` (centres unmarked) [Compound 90, 3-[3-(23,29-Difluoro-6,10,10-trimethyl-13-oxo-14,25-dioxa-3,4,12,20,31-pentazapentacyclo[24.3.1.12,5.016,24.017,21]hentriaconta-1(30),2,4,16(24),17(21),18,22,26,28-nonaen-6-yl)phenyl]propanoic acid], for which, in series [2], the “TECC (test agent AUC divided by VX-809 AUC)” value was “B (a value between 3 and 6 is marked “B”)”. Further, in series [3], the “DSLS (ΔTagg)” value is “C (a value greater than 10 °C and less than or equal to 25 °C is marked “C”)”. Regarding `COCCONC(=O)CCc1cccc(C2(C)CCCC(C)(C)CN(C)C(=O)CCc3c(c(F)cc4[nH]ccc34)Oc3ccc(F)c(c3)-c3ncc2[nH]3)c1` (single isomer, unassigned) [Compound 56, 3-[3-(23,29-difluoro-6,10,10,12-tetramethyl-13-oxo-25-oxa-3,12,20,31-tetrazapentacyclo[24.3.1.12,5.016,24.017,21]hentriaconta-1(30),2,4,16,18,21,23,26,28-nonaen-6-yl)phenyl]-N-(2-methoxyethoxy)propanamide], the “TECC (test agent AUC divided by VX-809 AUC)” value in series [2] was “A (a TECC value less than 3 is marked “A”)”. Besides, the “DSLS (ΔTagg)” value in series [3] is “A (an ΔTagg value less than or equal to 5 °C is marked “A”)”. Turning to `CN1CC(C)(C)CCCC(C)(c2cccc(CCC(=O)O)c2)c2nnc([nH]2)-c2cc(ccc2F)Oc2c(F)cc3[nH]ccc3c2CCC1=O` (centres unmarked) [Compound 44, 3-[3-(23,29-Difluoro-6,10,10,12-tetramethyl-13-oxo-25-oxa-3,4,12,20,31-pentazapentacyclo[24.3.1.12,5.016,24.017,21]hentriaconta-1(30),2,4,16,18,21,23,26,28-nonaen-6-yl)phenyl]propanoic acid], the “TECC (test agent AUC divided by VX-809 AUC)” value in series [2] is “C (a value between 6 and 20 is marked “C”)”. Further, the “DSLS (ΔTagg)” value in series [3] was “C (a value greater than 10 °C and less than or equal to 25 °C is marked “C”)”. On to `CN1CC(C)(C)COCC(C)(c2cccc(CCC(=O)O)c2)c2cnc([nH]2)-c2cc(ccc2F)Oc2c(F)cc3[nH]ccc3c2CCC1=O` (single isomer, unassigned) [Compound 20B, 3-[3-(23,29-Difluoro-6,10,10,12-tetramethyl-13-oxo-8,25-dioxa-3,12,20,31-tetrazapentacyclo[24.3.1.12,5.016,24.017,21]hentriaconta-1(30),2,4,16,18,21,23,26,28-nonaen-6-yl)phenyl]propanoic acid], for which, in series [2], the “TECC (test agent AUC divided by VX-809 AUC)” value is “A (a TECC value less than 3 is marked “A”)”. Moreover, the “DSLS (ΔTagg)” value in series [3] was “A (an ΔTagg value less than or equal to 5 °C is marked “A”)”. Regarding `CN1CC(C)(C)CCCC(c2ccccc2)n2ccc(n2)-c2cc(ccc2F)Oc2c(F)cc3[nH]ccc3c2CCC1=O` (centres unmarked) [Compound 39, 23,29-difluoro-10,10,12-trimethyl-6-phenyl-25-oxa-5,12,20,31-tetrazapentacyclo[24.3.1.12,5.016,24.017,21]hentriaconta-1(30),2(31),3,16,18,21,23,26,28-nonaen-13-one], the “TECC (test agent AUC divided by VX-809 AUC)” value in series [2] is on record as “A (a TECC value less than 3 is marked “A”)”. Moreover, in series [3], the “DSLS (ΔTagg)” value is “A (an ΔTagg value less than or equal to 5 °C is marked “A”)”.

Consider `CC1(c2cccc(CCC(=O)O)c2)CCCCNC(=O)OCCc2c(c(F)cc3[nH]ccc23)Oc2ccc(F)c(c2)-c2ncc1[nH]2` (centres unmarked) [Compound 86, 3-[3-(23,29-Difluoro-6-methyl-12-oxo-13,25-dioxa-3,11,20,31-tetrazapentacyclo[24.3.1.12,5.016,24.017,21]hentriaconta-1(30),2,4,16(24),17(21),18,22,26,28-nonaen-6-yl)phenyl]propanoic acid], for which the “TECC (test agent AUC divided by VX-809 AUC)” value in series [2] was “C (a value between 6 and 20 is marked “C”)”. For the same compound, the “DSLS (ΔTagg)” value in series [3] is “C (a value greater than 10 °C and less than or equal to 25 °C is marked “C”)”. On to `CC1(C)CCOCC(c2cccc(CCC(=O)O)c2)n2ccc(n2)-c2cc(ccc2F)Oc2c(F)cc3[nH]ccc3c2COC(=O)N1` (single isomer, unassigned) [Compound 96A, 3-[3-(23,29-difluoro-11,11-dimethyl-13-oxo-8,14,25-trioxa-5,12,20,31-tetrazapentacyclo[24.3.1.12,5.016,24.017,21]hentriaconta-1(30),2(31),3,16,18,21,23,26,28-nonaen-6-yl)phenyl]propanoic acid], for which the “TECC (test agent AUC divided by VX-809 AUC)” value in series [2] was “B (a value between 3 and 6 is marked “B”)”. For the same compound, in series [3], the “DSLS (ΔTagg)” value is “C (a value greater than 10 °C and less than or equal to 25 °C is marked “C”)”. With `C[C@@H](Cc1cccc([C@@]2(C)CCCCC(C)(C)CN(C)C(=O)Cc3c(c(F)cc4[nH]ccc34)Oc3ccnc(c3)-c3nc2nn3C)c1)C(=O)O` [Compound 121, (2S)-3-[3-[(6R)-23-fluoro-3,6,11,11,13-pentamethyl-14-oxo-25-oxa-3,4,13,20,29,31-hexazapentacyclo[24.3.1.12,5.016,24.017,21]hentriaconta-1(30),2(31),4,16,18,21,23,26,28-nonaen-6-yl]phenyl]-2-methyl-propanoic acid], the “TECC (test agent AUC divided by VX-809 AUC)” value in series [2] was “A (a TECC value less than 3 is marked “A”)”. Besides, the “DSLS (ΔTagg)” value in series [3] is “C (a value greater than 10 °C and less than or equal to 25 °C is marked “C”)”. As to `CN1CC(C)(C)CCCC(C)(c2cccc(CCC(=O)NOCCO)c2)c2cnc([nH]2)-c2cc(ccc2F)Oc2c(F)cc3[nH]ccc3c2CCC1=O` (single isomer, unassigned) [Compound 59, 3-[3-(23,29-difluoro-6,10,10,12-tetramethyl-13-oxo-25-oxa-3,12,20,31-tetrazapentacyclo[24.3.1.12,5.016,24.017,21]hentriaconta-1(30),2,4,16,18,21,23,26,28-nonaen-6-yl)phenyl]-N-(2-hydroxyethoxy)propanamide], the “TECC (test agent AUC divided by VX-809 AUC)” value in series [2] is on record as “A (a TECC value less than 3 is marked “A”)”. The “DSLS (ΔTagg)” value in series [3] is “B (a value above 5 °C and less than or equal to 10 °C is marked “B”)”. For `CC1(C)CCCCC(C)(c2cccc(CCC(=O)O)c2)c2cnc([nH]2)-c2cc(ccc2F)Oc2c(F)cc3[nH]ccc3c2COC(=O)N1` (centres unmarked) [Compound 88, 3-[3-(23,29-Difluoro-6,11,11-trimethyl-13-oxo-14,25-dioxa-3,12,20,31-tetrazapentacyclo[24.3.1.12,5.016,24.017,21]hentriaconta-1(30),2,4,16,18,21,23,26,28-nonaen-6-yl)phenyl]propanoic acid], in series [2], the “TECC (test agent AUC divided by VX-809 AUC)” value is “B (a value between 3 and 6 is marked “B”)”. Further, in series [3], the “DSLS (ΔTagg)” value is “C (a value greater than 10 °C and less than or equal to 25 °C is marked “C”)”.

For `Cn1nc2nc1-c1cc(ccc1F)Oc1c(F)cc3[nH]ccc3c1COC(=O)NC(C)(C)CCCCC2c1cccc(CCC(=O)O)c1` (single isomer, unassigned) [Compound 97A, 3-[3-(23,29-difluoro-3,11,11-trimethyl-13-oxo-14,25-dioxa-3,4,12,20,31-pentazapentacyclo-[24.3.1.12,5.016,24.017,21]hentriaconta-1(30),2(31),4,16,18,21,23,26,28-nonaen-6-yl)phenyl]propanoic acid], the “TECC (test agent AUC divided by VX-809 AUC)” value in series [2] is “B (a value between 3 and 6 is marked “B”)”. Further, the “DSLS (ΔTagg)” value in series [3] was “C (a value greater than 10 °C and less than or equal to 25 °C is marked “C”)”.
